Experimental data taken from ChEMBL document CHEMBL1201862, “PubChem BioAssay data set” (2004).
Calls of active or inactive are those of the source.

Key:
Beta-galactosidase = Beta-galactosidase (Escherichia coli, UniProt Q8VNN2); experiment: Dose response counterscreen for EBI2 assay utilizing the enzyme, b-galactosidase.; type: functional
[1] = blockers of HIV-1 ZM109 envelope-driven cell-cell fusion – HeLa effector, CEM target cells, luciferase, cherry-pick, dose response (AID 652058); type: functional, cell-based;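 further: luciferase signal from HIV-1 Env mediated cell-cell fusion of effector and target cells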
[2] = HIV-1 AD8 envelope cell-cell fusion blockers – cherry-pick, dose response (AID 652062); type: functional, cell-based;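 further: luciferase signal from cell-cell fusion driven by HIV-1 clade B AD8 Env; potency is for inhibitors of fusion seen as a drop in luminescence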
[3] = intracellular Trypanosoma cruzi inhibitors in host cells – cell-based, plate reader, cherry-pick samples, set 3, dose response (AID 651818); type: functional;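 further: compounds incubated with infected cells for about four days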
[4] = anti-trypanosomal activity in BESM host cells – imaging, CA-I/72 strain, bovine embryo skeletal muscle, dry powder, dose response (AID 651885); type: functional, cell-based
[5] = T. cruzi growth inhibition in host cells, dose response, cell-based, plate reader, dry powder, set 2 (AID 652275); type: functional
[6] = blockers of HIV-1 envelope-mediated cell-cell fusion – cherry-pick, dose response (AID 652057); type: functional, cell-based
[7] = OV-90 cell viability loss – plate reader, dry powder, SA8, PAX8 inhibitor project, dose response (AID 743149); type: functional, cell-based
[8] = inhibitors acting on PAX2 in cells – cell-based, plate reader, dry powder samples, selectivity assay for PAX8 inhibitor project, dose response (AID 743048); type: functional;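 further: HEK293 cells carrying a WT1 promoter luciferase reporter driven by expressed Pax2; potency is for inhibition of Pax2 driven reporter signal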
[9] = PAX5 cellular inhibition readout – cell-based, plate reader, dry powder samples, selectivity assay for PAX8 inhibitor project, dose response (AID 743047); type: functional;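 further: HEK293 cells carrying a Pax5 driven CD19 promoter luciferase reporter; potency of inhibitors that lower reporter luminescence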
Paired box protein Pax-8 = Paired box protein Pax-8 (Homo sapiens, UniProt Q06710); experiment: PAX8 transcriptional activity inhibition in RMG-I – RMG-I cells, luciferase, cherry-pick, dose response (AID 687027); type: functional, cell-based;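 further: luciferase reporter driven by Pax8 target thyroperoxidase promoter measured by SteadyGlo luminescence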
[10] = PAX8-dependent cell viability loss – plate reader, dry powder, dose response (AID 743049); type: functional, cell-based
[11] = COV362 cell viability loss – plate reader, dry powder, SA12, cytotoxicity control for PAX8 inhibitor project, dose response (AID 743144); type: functional, cell-based
[12] = OVCAR4 cell viability loss – plate reader, dry powder, SA11, cytotoxicity control for PAX8 inhibitor project, dose response (AID 743150); type: functional, cell-based; conditions: OVCAR-4
[13] = molecular target: Disintegrin and metalloproteinase domain-containing protein 17 (Homo sapiens, UniProt P78536); experiment: inhibition of ADAM17 substrate cleavage – biochemical, quenched FRET substrate, counter-screen for ADAM10 exosite inhibitor project, dose response (AID 743253)
[14] = molecular target: Neurotensin receptor type 1 (Homo sapiens, UniProt P30989); type: functional;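 further: Image-based confirmatory dose-response assay measuring agonist activity at NTR1; NTR1-expressing U2OS osteosarcoma cells imaged for beta-arrestin GFP spot formation; agonist potency where compounds increase beta-arrestin recruitment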
[15] = molecular target: 1-phosphatidylinositol 4,5-bisphosphate phosphodiesterase beta-3 (Homo sapiens, UniProt Q01970); experiment: Fluorescence-based biochemical high throughput dose response assay to identify inhibitors of phospholipase C isozymes (PLC-B3).
[16] = molecular target: 1-phosphatidylinositol 4,5-bisphosphate phosphodiesterase gamma-1 (Homo sapiens, UniProt P19174); experiment: Counterscreen for inhibitors of phospholipase C isozymes (PLC-B3): Fluorescence-based biochemical high throughput dose response assay to identify inhibitors of phospholipase C isozymes (PLC-gamma1).
[17] = molecular target: Photoreceptor-specific nuclear receptor (Homo sapiens, UniProt Q9Y5X4); type: functional;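 further: potency for compounds that break the NR2E3 corepressor complex and count as activators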
Major prion protein = Major prion protein (Homo sapiens, UniProt P04156); type: functional, cell-based
[18] = molecular target: Peroxisome proliferator-activated receptor gamma/Nuclear receptor corepressor 2 (Homo sapiens, UniProt P37231+Q9Y618); type: functional
[19] = molecular target: T1, Oxysterols receptor LXR-beta (Homo sapiens, UniProt P55055); type: functional, cell-based;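 further: agonist activity at LXR measured by a cell-based luminescence readout across a dose range, run as a counterscreen for daf-12 agonists; HEK293 cells with Gal4-LXR fusion and GAL4-driven luciferase reporter; potency for activation of Gal4-LXR reporter so compounds are agonists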
T1 sequence (P55055 whole entry): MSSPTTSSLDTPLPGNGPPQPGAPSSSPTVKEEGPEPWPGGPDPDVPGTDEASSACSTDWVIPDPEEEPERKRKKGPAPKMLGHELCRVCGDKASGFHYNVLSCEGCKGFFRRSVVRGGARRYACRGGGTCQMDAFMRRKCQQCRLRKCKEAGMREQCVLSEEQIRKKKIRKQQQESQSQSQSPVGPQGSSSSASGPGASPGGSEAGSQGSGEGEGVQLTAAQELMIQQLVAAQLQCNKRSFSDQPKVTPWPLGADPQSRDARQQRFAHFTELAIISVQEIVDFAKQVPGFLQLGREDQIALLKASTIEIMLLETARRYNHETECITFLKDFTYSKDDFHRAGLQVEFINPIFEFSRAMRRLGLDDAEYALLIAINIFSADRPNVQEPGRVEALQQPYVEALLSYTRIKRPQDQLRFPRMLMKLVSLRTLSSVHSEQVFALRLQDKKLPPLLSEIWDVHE

[20] = viability loss in HepG2 hepatoma cells – cell-based, ATP luminescence, cherry-pick, activator set 2, cytotoxicity control, dose response (AID 1053143); type: functional
[21] = IGROV1 cell killing – plate reader, dry powder samples, PAX8 inhibitor project, dose response (AID 743043); type: functional, cell-based; conditions: IGROV-1
[22] = COV434 cell viability loss – plate reader, dry powder, SA7, cytotoxicity control for PAX8 inhibitor project, dose response (AID 743145); type: functional, cell-based
[23] = OVCAR-3 cell viability loss – plate reader, dry powder samples, PAX8 inhibitor project, dose response (AID 743044); type: functional, cell-based

## COc1ccc(-c2ccc(-c3nc4ccc(C)cn4c3NC3CCCCC3)cc2OC)cc1
Beta-galactosidase
  IC50: 77.5 µM (inactive)

## C[C@@H]1CN([C@@H](C)CO)C(=O)c2cccc(NC(=O)c3ccncc3)c2O[C@H]1CN(C)CC1CCCCC1
[1]
  AC50: 0.953 µM (active)
[2]
  AC50: 1.96 µM (active)
[3]
  AC50: 0.636 µM (active)
[4]
  IC50: 0.74 µM (active)
[5]
  AC50: 0.182 µM (active)
[6]
  AC50: 0.4 µM (active)

## CCc1cnc(N2[C@@H](C#N)[C@@H](c3ccc(C#CC(C)C)cc3)[C@@H]2CO)s1
[7]
  AC50: 39.6 µM (active)
[8]
  AC50: 24.7 µM (active)
[9]
  AC50: 29.4 µM (active)
Paired box protein Pax-8
  AC50: 15.4 µM (active)
[10]
  AC50: 35.3 µM (active)
[11]
  AC50: > 70 µM (inactive)
[12]
  AC50: 23.6 µM (active)

## Cc1ccc(C(=O)Nc2nnc(NC(=S)Nc3ccccc3)s2)cc1
[13]
  IC50: > 69.5 µM (inactive)
[14]
  EC50: 7.59 µM (active)

## CC[C@H]1C=C[C@@H](C(=O)NS(=O)(=O)c2ccc(C)cc2)N(C(C)=O)C1
[15]
  IC50: > 122 µM (inactive)
[16]
  IC50: > 122 µM (inactive)

## CC(C)C1Cc2ccccc2-c2[nH]c(=S)[nH]c(=O)c21 (centres undefined)
[17]
  IC50: > 39.8 µM (not active)
Major prion protein
  IC50: 4.87 µM (active)
[18]
  IC50: 4.66 µM (active)

## COc1cccc(-c2nc(-c3ccc(Br)o3)no2)c1
[19]
  EC50: > 67.5 µM (inactive)
[20]
  AC50: > 52 µM (inactive)

## Cn1c(CCN2CCCC2)nc2cc(NS(=O)(=O)c3ccc(Cl)cc3)ccc21
[21]
  AC50: 26.9 µM (active)
[22]
  AC50: 46.1 µM (active)
[7]
  AC50: > 100 µM (inactive)
[8]
  AC50: 72.5 µM (active)
[9]
  AC50: 52.5 µM (active)
[23]
  AC50: 18.9 µM (active)
Paired box protein Pax-8
  AC50: 6.57 µM (active)
[10]
  AC50: 12.8 µM (active)
[11]
  AC50: 20.2 µM (active)
[12]
  AC50: 16.8 µM (active)

## CC(C)C1Cc2ccccc2-c2nc(S)nc(O)c21 (centres undefined)
cells
  IC50: > 138 µM (inactive)
